Assay results from US20050256132A1, “Use of ER selective NF-kB inhibitors for the treatment of sepsis” (priority 2003, published 2005).
Several values for one entry are separate records, joined by “and”; a condition that tells them apart may be missing. Equal entries are not always repeated. Structures can show the parent of a compound that is named as a salt. Where two headings read alike, the source gives them in different places. Values belong to the compound of their own block, whether it stands above or below them.

How the values were obtained:
ER/IL-6 = experiment: Endothelial Cell ER/IL-6 Assay, IL-6 promoter luciferase (Table 2); type: cell-based, human; conditions: ERα infected HAECT-1 cells, IL-1β; for IC50: read-out: IL6 luc IC50; for Emax: read-out: IL6 luc % Efficacy
Experimental: T-175 flasks of 100% confluent HAECT-1 cells (immortalized human aortic endothelial cells) were washed with 8 ml of HBSS (HEPES buffered saline solution) and infected for fours hours with 6 ml of a 1:10 dilution of Ad5-wt-hERα virus (an adenovirus transfection vector that mediates CMV promoter driven expression of human ERα) in phenol red free Endothelial Cell Basal medium (Clonetics, San Diego, Calif., Catalog # CC-3129) containing 0.25% bovine serum albumin (EDM-BSA). After four hours, cells were washed with EDM-BSA and incubated overnight in the same medium. Following overnight incubation, cells were washed with EDM-BSA and infected for 2 hours with 6 ml of a 1:10 dilution of Ad5-3x(NFκB).Luc virus (Adenovirus luciferase expression vector driven by three repeats of the MHC NFκb sites 5′ to the thymidine kinase promoter) in EDM-BSA. After two hours, cells were washed and incubated at 34° C. for one hour. Cells were then washed, trypsinized, counted, and resuspended in 95% FBS/5% dimethylsulfoxide at a concentration of […], frozen as 1 or 5 ml aliquots in cryo-vials and stored at −150° C. Control (no ER infection) cells were processed as above without Ad5-wt-hERα virus infection.
ERα infected HAECT-1 cells or control cells were thawed, diluted 42× in warm EBM-BSA, plated into 96-well plates at 0.1 ml/well and incubated for 4 hours at 34° C. Test compounds were added to the cells at 2× stocks in EBM-BSA containing 2 ng/ml IL-1β Ad6-IL-6(1250 bp).Luc virus and plates were returned to the incubator (34° C.). After […], cells were lysed with 50 μl of Promega Cell Culture Lysis reagenet for about 5 minutes at room temperature on a shaker. After lysing, 15 μl of lysate is transferred to luminometer plates for luciferase determination. Luciferase activity is evaluated using a Perkin Elmer Victor2 1420 multilabel counter. Creatine kinase was determined from the rate of increase in A340 following addition of 100 μl of CK assay reagent (Sigma catalog no. 47-10) to the remainder of the cell lysate.
For IC50 and EC50 calculations, mean IL-6, luciferase or CK values versus log10 of the compound concentration were fitted to a four parameter logistic equation. The IC50/EC50 value, ‘Hill slope,’ upper and lower limits of the curve were iteratively estimated.

melting point: 206 to 208 °C
SMILES: COc1ccccc1[C@H](c1cccc2ccccc12)[C@@](C)(C#N)C(=O)N1CCC(O)(c2ccc(Br)cc2)CC1

melting point: 201 °C
SMILES: COc1ccccc1[C@H](c1cccc2ccccc12)[C@@](C)(C#N)C(=O)N1CCN(CC(=O)N2CCOCC2)CC1

melting point: 193 °C
SMILES: COc1ccccc1[C@H](c1cccc2ccccc12)[C@@](C)(C#N)C(=O)N1CCN(C(=O)c2ccco2)CC1

melting point: 102 to 103 °C
SMILES: COc1ccccc1[C@H](c1cccc2ccccc12)[C@@](C)(C#N)C(=O)N1CCN(CCN2CCOCC2)CC1

melting point: 186 to 188 °C
SMILES: CCOC(=O)C(C)(C#N)C(c1cccc2ccccc12)c1cccc2ccccc12 (stereo not drawn)

melting point: 104 to 105 °C
SMILES: COc1ccccc1[C@H](c1cccc2ccccc12)[C@@](C)(C#N)C(=O)N1CCN(c2cccc(C)c2)CC1

melting point: 186 to 188 °C
SMILES: COc1cc(OC)cc(N2CCN(C(=O)[C@](C)(C#N)[C@H](c3ccccc3OC)c3cccc4ccccc34)CC2)c1

melting point: 188 to 190 °C
SMILES: COc1ccccc1[C@H](c1cccc2ccccc12)[C@@](C)(C#N)C(=O)N1CCN(c2cccc3c2CCC3)CC1

melting point: 181 to 183 °C
SMILES: COc1ccccc1[C@H](c1cccc2ccccc12)[C@@](C)(C#N)C(=O)N1CCN(c2ccc(C)c(C)c2)CC1

melting point: 174 to 176 °C
SMILES: COc1ccccc1[C@H](c1cccc2ccccc12)[C@@](C)(C#N)C(=O)N1CCN(c2cccc(Cl)c2)CC1

melting point: 194 to 195 °C
SMILES: COc1ccccc1[C@H](c1cccc2ccccc12)[C@@](C)(C#N)C(=O)N1CCN(c2cccc(C)c2C)CC1

melting point: 178 to 180 °C
SMILES: COc1ccccc1[C@H](c1cccc2ccccc12)[C@@](C)(C#N)C(=O)N1CCN(c2ccc(Cl)cc2)CC1

melting point: 174 to 176 °C
SMILES: COc1ccccc1[C@H](c1cccc2ccccc12)[C@@](C)(C#N)C(=O)N1CCN(c2cccc3[nH]ccc23)CC1

melting point: 118 to 122 °C
SMILES: COc1ccccc1[C@H](c1cccc2ccccc12)[C@@](C)(C#N)C(=O)N1CC=C(c2ccc(Cl)cc2)CC1

melting point: 145 to 148 °C
SMILES: COc1ccccc1[C@H](c1cccc2ccccc12)[C@@](C)(C#N)C(=O)N1CCN(c2ccccc2F)CC1

melting point: 145 to 147 °C
SMILES: COc1ccccc1[C@H](c1cccc2ccccc12)[C@@](C)(C#N)C(=O)N1CCN(c2ccccc2Cl)CC1

melting point: 147 to 148 °C
SMILES: COc1cccc(N2CCN(C(=O)[C@](C)(C#N)[C@H](c3ccccc3OC)c3cccc4ccccc34)CC2)c1

IC50 (ER/IL-6; Homo sapiens, HAECT1): 12 nM
SMILES: COC(=O)[C@@](C#N)(CCN1CCOCC1)[C@H](c1ccccc1OC)c1cccc2ccccc12 (relative stereo) [Example 147, Methyl (2S*)-2-cyano-2-[(S*)-(2-methoxyphenyl)(1-naphthyl)methyl]-4-morpholin-4-ylbutanoate]

IC50 (ER/IL-6; Homo sapiens, HAECT1): 33 nM
SMILES: COc1ccccc1[C@H](c1cccc2ccccc12)[C@@](C)(C#N)C(=O)N1CC=C(c2ccc(F)cc2)CC1 [Example 137, (2S)-3-[4-(4-fluorophenyl)-3,6-dihydropyridin-1(2H)-yl]-2-[(S)-(2-methoxyphenyl)(1-naphthyl)methyl]-2-methyl-3-oxopropanenitrile]
Emax (ER/IL-6; Homo sapiens, HAECT1): 163%

IC50 (ER/IL-6; Homo sapiens, HAECT1): 324 nM
SMILES: COc1ccccc1[C@H](c1cccc2ccccc12)[C@@](C)(C#N)C(=O)N1CCC(O)(c2cccc(C(F)(F)F)c2)CC1 [Example 140, (2S)-3-{4-hydroxy-4-[3-(trifluoromethyl)phenyl]piperidin-1-yl}-2-[(S)-(2-methoxyphenyl)(1-naphthyl)methyl]-2-methyl-3-oxopropanenitrile]
Emax (ER/IL-6; Homo sapiens, HAECT1): 125%

Continued, compound first:

SMILES: CC(C)(C)OC(=O)C(C#N)C(c1ccccc1OC(F)(F)F)c1cccc2ccccc12 (stereo not drawn)
melting point: 115 to 118 °C

SMILES: Cc1cccc(C)c1C(c1cccc2ccccc12)C(C#N)C(=O)OC(C)(C)C (stereo not drawn)
melting point: 124 to 128 °C

SMILES: CC(C)(C)OC(=O)C(C#N)C(c1cccc2ccccc12)c1cccc2ccccc12 (stereo not drawn)
melting point: 156 to 157 °C

SMILES: CC(C)(C)OC(=O)[C@@](C)(C#N)[C@H](c1ccccc1OC(F)(F)F)c1cccc2ccccc12 (racemic)
melting point: 150 to 153 °C

SMILES: C[C@@](C#N)(C(=O)O)[C@H](c1ccccc1C(F)(F)F)c1cccc2ccccc12 (racemic)
melting point: 220 °C (dec.)

SMILES: CCN(CC)CC[C@](C#N)(C(=O)OC)[C@H](c1ccccc1OC)c1cccc2ccccc12 (relative stereo) (as salt: HCl) [Example 148, Methyl (2S*)-2-cyano-4-(diethylamino)-2-[(S*)-(2-methoxyphenyl)(1-naphthyl)methyl]butanoate]
melting point: 174 °C (dec.)

SMILES: CCN(CC)CC[C@](C#N)(C(=O)OC)[C@H](c1ccccc1OC)c1cccc2ccccc12 (relative stereo) [Example 148, Methyl (2S*)-2-cyano-4-(diethylamino)-2-[(S*)-(2-methoxyphenyl)(1-naphthyl)methyl]butanoate]
IC50 (ER/IL-6; Homo sapiens, HAECT1): 257 nM

SMILES: COCCOC[C@@](C#N)(C(=O)OC)[C@@H](c1ccccc1OC)c1cccc2ccccc12 [Example 159, Methyl (2R,3R)-2-cyano-2-[(2-methoxyethoxy)methyl]-3-(2-methoxyphenyl)-3-(1-naphthyl)propanoate]
Emax (ER/IL-6; Homo sapiens, HAECT1): 95% | IC50 (ER/IL-6; Homo sapiens, HAECT1): 273 nM

SMILES: COc1ccccc1C(c1cnc2ccccc2c1)C(C)(C#N)C(=O)N1CCC(c2cccc(C(F)(F)F)c2)CC1 (stereo not drawn) [Example 164, 3-(2-Methoxyphenyl)-2-methyl-3-quinolin-3-yl-2-({4-[3-(trifluoromethyl)phenyl]piperidin-1-yl}carbonyl)propanenitrile]
Emax (ER/IL-6; Homo sapiens, HAECT1): 48% | IC50 (ER/IL-6; Homo sapiens, HAECT1): 32 nM

SMILES: COCCOC[C@@](C#N)(C(=O)N1CCC(c2cccc(C(F)(F)F)c2)CC1)[C@@H](c1ccccc1OC)c1cccc2ccccc12 [Example 168, (RR,SS)-2-[(2-Methoxyethoxy)methyl]-3-(2-methoxyphenyl)-3-(1-naphthyl)-2-({4-[3-(trifluoromethyl)phenyl]piperidin-1-yl}carbonyl)propanenitrile]
IL6 luc % Efficacy (ER/IL-6): 68% | IC50 (ER/IL-6): 37 nM

SMILES: COCCOC[C@@](C#N)(C(=O)NCC(C)(C)C)[C@@H](c1ccccc1OC)c1cccc2ccccc12 [Example 170, (RR,SS)-2-Cyano-N-(2,2-dimethylpropyl)-2-[(2-methoxyethoxy)methyl]-3-(2-methoxyphenyl)-3-(1-naphthyl)propanamide]
IL6 luc % Efficacy (ER/IL-6): 89% | IC50 (ER/IL-6): 577 nM

SMILES: COCCOC[C@@](C#N)(C(=O)N1CCN(c2cnccn2)CC1)[C@@H](c1ccccc1OC)c1cccc2ccccc12 [Example 171, (RR,SS)-2-[(2-methoxyethoxy)methyl]-3-(2-methoxyphenyl)-3-(1-naphthyl)-2-[(4-pyrazin-2-ylpiperazin-1-yl)carbonyl]propanenitrile]
IL6 luc % Efficacy (ER/IL-6): 54% | IC50 (ER/IL-6): 337 nM

SMILES: COc1ccccc1[C@@H](c1cccc2ccccc12)[C@@](C#N)(Cc1cccnc1)C(=O)NCC(C)(C)C [Example 176, (RR,SS)-2-cyano-N-(2,2-dimethylpropyl)-3-(2-methoxyphenyl)-3-(1-naphthyl)-2-(pyridin-3-ylmethyl)propanamide]
IL6 luc % Efficacy (ER/IL-6): 71% | IC50 (ER/IL-6): 413 nM

SMILES: COc1ccccc1[C@@H](c1cccc2ccccc12)[C@@](C#N)(Cc1cccnc1)C(=O)OC(C)(C)C [Example 179, tert-Butyl (RR,SS)-2-cyano-3-(2-methoxyphenyl)-3-(1-naphthyl)-2-(pyridin-3-ylmethyl)propanoate]
IL6 luc % Efficacy (ER/IL-6): 128% | IC50 (ER/IL-6): 151 nM

SMILES: COCC(C#N)(C(=O)NC(C)(C)C)C(c1ccccc1OC)c1cccc2ccccc12 (stereo not drawn) [Example 180, (RR,SS)-N-(tert-butyl)-2-cyano-2-(methoxymethyl)-3-(2-methoxyphenyl)-3-(1-naphthyl)propanamide]
IL6 luc % Efficacy (ER/IL-6): 119% | IC50 (ER/IL-6): 200 nM

SMILES: COC[C@@](C#N)(C(=O)N1CCN(CCN2CCOCC2)CC1)[C@@H](c1ccccc1OC)c1cccc2ccccc12 [Example 219, (RR,SS)-2-(methoxymethyl)-3-(2-methoxyphenyl)-2-{[4-(2-morpholin-4-ylethyl)piperazin-1-yl]carbonyl}-3-(1-naphthyl)propanenitrile]
IL6 luc % Efficacy (ER/IL-6): 74% | IC50 (ER/IL-6): 1400 nM

SMILES: COC[C@](C#N)(C(=O)N1CCN(C2CCCCC2)CC1)[C@H](c1ccccc1OC)c1cccc2ccccc12 [Example 221, (2S,3S)-3-(4-cyclohexylpiperazin-1-yl)-2-(methoxymethyl)-2-[(2-methoxyphenyl)(1-naphthyl)methyl]-3-oxopropanenitrile]
IL6 luc % Efficacy (ER/IL-6): 159% and 245% and 174%
